Measurements from US10501461B2, “Tyrosine amide derivatives as Rho-kinase inhibitors” (CHIESI FARMACEUTICI S.P.A., priority 2017, dated 2019).

How the values were obtained:
Rho kinase 1 (ROCK-I) = Rho kinase 1 (ROCK-I) (Homo sapiens, UniProt Q13464); test: In vitro Rho kinase inhibitory activity assay (ADP-Glo), Rho kinase 1; format: biochemical; conditions: 10 μM ATP, 25° C., expressed as range of activity
Procedure: (§1) The effectiveness of compounds of the present invention to inhibit Rho kinase activity can be determined in a 10 μl assay containing 40 mM Tris pH7.5, 20 mM MgCl2 0.1 mg/ml BSA, 50 μM DTT and 2.5 μM peptide substrate (Myelin Basic Protein) using an ADP-Glo kit (Promega). Compounds were dissolved in DMSO such that the final concentration of DMSO was 1% in the assay. All reactions/incubations are performed at 25° C. Compound (2 ul) and either Rho kinase 1 or 2 (4 μl) were mixed and incubated for 30 mins. Reactions were initiated by addition of ATP (4 μl) such that the final concentration of ATP in the assay was 10 μM. After a 1 hour incubation 10 μl of ADP-Glo Reagent was added and after a further 45 minute incubation 20 ul of Kinase Detection Buffer was added and the mixture incubated for a further 30 minutes. The luminescent signal was measured on a luminometer. […] Compounds were tested in dose-response format and the inhibition of kinase activity was calculated at each concentration of compound. To determine the IC50 (concentration of compound required to inhibit 50% of the enzyme activity) data were fit to a plot of % inhibition vs Log10 compound concentration using a sigmoidal fit with a variable slope and fixing the maximum to 100% and the minimum to 0%. To determine the Ki values the Cheng-Prusoff equation was utilized (Ki=IC50/(1+[S]/Km).

Rho kinase 2 (ROCK-II) = Rho kinase 2 (ROCK-II) (Homo sapiens, UniProt O75116); test: In vitro Rho kinase inhibitory activity assay (ADP-Glo), Rho kinase 2; format: biochemical; conditions: 10 μM ATP, 25° C., expressed as range of activity
Chain of Rho kinase 2 (ROCK-II) (O75116 whole entry): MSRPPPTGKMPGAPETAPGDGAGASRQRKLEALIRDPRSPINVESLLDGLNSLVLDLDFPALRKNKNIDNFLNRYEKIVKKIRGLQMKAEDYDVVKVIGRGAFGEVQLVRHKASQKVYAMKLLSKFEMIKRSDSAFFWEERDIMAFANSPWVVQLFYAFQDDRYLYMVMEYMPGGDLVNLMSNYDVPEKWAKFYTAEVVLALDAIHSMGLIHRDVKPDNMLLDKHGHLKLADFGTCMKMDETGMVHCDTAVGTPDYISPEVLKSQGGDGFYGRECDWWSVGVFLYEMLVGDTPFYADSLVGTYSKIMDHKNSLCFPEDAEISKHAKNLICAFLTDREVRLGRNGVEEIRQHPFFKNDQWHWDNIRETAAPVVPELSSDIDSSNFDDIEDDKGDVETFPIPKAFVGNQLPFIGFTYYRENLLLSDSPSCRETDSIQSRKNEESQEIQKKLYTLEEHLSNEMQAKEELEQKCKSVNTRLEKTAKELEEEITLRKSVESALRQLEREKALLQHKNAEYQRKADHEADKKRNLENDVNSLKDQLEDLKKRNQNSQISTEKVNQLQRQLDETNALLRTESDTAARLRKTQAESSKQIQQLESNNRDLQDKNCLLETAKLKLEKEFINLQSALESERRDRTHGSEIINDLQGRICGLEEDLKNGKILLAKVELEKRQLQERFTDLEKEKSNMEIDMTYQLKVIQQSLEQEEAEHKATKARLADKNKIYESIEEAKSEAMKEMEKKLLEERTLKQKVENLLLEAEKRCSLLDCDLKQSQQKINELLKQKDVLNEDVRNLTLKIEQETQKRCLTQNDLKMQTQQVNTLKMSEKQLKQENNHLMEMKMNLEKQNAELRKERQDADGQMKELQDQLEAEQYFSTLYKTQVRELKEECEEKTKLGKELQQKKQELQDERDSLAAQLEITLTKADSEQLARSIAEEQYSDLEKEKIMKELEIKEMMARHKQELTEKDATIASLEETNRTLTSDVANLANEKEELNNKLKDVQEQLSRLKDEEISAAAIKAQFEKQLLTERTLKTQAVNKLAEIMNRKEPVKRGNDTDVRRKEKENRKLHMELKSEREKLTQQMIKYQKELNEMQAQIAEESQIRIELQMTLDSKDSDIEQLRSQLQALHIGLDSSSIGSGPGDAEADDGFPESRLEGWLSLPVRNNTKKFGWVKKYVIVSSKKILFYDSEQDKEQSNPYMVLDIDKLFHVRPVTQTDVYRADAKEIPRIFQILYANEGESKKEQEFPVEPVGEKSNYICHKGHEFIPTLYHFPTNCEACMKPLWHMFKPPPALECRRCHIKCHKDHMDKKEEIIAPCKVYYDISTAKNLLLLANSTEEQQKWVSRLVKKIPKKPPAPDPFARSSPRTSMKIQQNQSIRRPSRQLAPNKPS
Procedure: as §1

Chain of Rho kinase 1 (ROCK-I) (Q13464 whole entry): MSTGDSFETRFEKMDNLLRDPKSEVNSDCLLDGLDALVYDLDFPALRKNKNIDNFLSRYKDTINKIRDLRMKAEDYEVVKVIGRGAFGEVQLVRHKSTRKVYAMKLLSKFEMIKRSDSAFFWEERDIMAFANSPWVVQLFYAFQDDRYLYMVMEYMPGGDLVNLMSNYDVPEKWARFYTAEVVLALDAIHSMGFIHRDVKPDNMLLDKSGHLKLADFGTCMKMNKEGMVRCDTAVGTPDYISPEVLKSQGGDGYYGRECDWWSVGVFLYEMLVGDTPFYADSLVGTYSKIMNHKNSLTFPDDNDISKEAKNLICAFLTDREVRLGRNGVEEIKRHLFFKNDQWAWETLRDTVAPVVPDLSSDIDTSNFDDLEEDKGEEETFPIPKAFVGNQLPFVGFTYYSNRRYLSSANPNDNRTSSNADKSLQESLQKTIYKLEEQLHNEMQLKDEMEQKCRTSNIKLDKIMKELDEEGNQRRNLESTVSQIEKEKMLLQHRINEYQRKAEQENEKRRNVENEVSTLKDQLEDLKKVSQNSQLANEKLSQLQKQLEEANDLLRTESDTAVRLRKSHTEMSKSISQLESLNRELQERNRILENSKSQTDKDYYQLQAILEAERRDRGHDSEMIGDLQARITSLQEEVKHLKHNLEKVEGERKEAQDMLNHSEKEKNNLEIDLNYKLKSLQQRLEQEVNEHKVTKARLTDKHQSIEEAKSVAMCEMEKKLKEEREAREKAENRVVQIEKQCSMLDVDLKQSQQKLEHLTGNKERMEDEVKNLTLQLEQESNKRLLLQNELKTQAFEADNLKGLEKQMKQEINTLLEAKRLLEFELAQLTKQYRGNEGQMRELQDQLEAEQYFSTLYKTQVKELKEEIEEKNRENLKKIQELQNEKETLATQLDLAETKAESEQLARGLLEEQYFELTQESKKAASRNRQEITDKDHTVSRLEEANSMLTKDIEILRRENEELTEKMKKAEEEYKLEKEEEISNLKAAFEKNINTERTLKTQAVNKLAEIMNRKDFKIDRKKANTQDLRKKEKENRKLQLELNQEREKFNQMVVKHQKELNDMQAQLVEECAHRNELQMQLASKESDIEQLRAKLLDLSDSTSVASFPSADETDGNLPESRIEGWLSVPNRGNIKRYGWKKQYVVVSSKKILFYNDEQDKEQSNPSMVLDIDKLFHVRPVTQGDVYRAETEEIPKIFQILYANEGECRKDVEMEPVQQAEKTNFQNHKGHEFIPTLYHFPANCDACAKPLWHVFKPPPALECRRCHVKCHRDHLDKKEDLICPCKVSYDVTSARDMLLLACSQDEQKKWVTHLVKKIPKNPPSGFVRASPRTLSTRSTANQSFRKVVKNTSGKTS

Row | SMILES | Ki (Rho kinase 1 (ROCK-I)) | Ki (Rho kinase 2 (ROCK-II))
1 | Cc1c[nH]c2nccc(Oc3ccc(C[C@H](N)C(=O)N4CCN5CCOCC5C4)cc3F)c12 (stereo partly drawn) [Example 16, (2S)-2-amino-3-(3-fluoro-4-((3-methyl-1H-pyrrolo[2,3-b]pyridin-4-yl)oxy)phenyl)-1-(hexahydropyrazino[2,1-c][1,4]oxazin-8(1H)-yl)propan-1-one] | < 3 nM | < 3 nM
2 | Cc1c[nH]c2nccc(Oc3ccc(C[C@H](N)C(=O)N4C[C@@H](C)N(C)[C@@H](C)C4)cc3F)c12 [Example 17, (S)-2-amino-3-(3-fluoro-4-((3-methyl-1H-pyrrolo[2,3-b]pyridin-4-yl)oxy)phenyl)-1-((3S,5R)-3,4,5-trimethylpiperazin-1-yl)propan-1-one] | < 3 nM | < 3 nM
3 | Cc1c[nH]c2nccc(Oc3ccc(C[C@H](N)C(=O)N4CCN(C)C(C)(C)C4)cc3F)c12 [Example 18, (S)-2-amino-3-(3-fluoro-4-((3-methyl-1H-pyrrolo[2,3-b]pyridin-4-yl)oxy)phenyl)-1-(3,3,4-trimethylpiperazin-1-yl)propan-1-one] | < 3 nM | < 3 nM
4 | COCCN1CCN(C(=O)C(N)Cc2ccc(Oc3ccnc4[nH]cc(C)c34)c(F)c2)CC1 (stereo not shown) [Example 19, 2-amino-3-(3-fluoro-4-((3-methyl-1H-pyrrolo[2,3-b]pyridin-4-yl)oxy)phenyl)-1-(4-(2-methoxyethyl)piperazin-1-yl)propan-1-one] | < 3 nM | < 3 nM
5 | Cc1c[nH]c2nccc(Oc3ccc(C[C@H](N)C(=O)NC4CCCCC4)cc3F)c12 [Example 20, (S)-2-amino-N-cyclohexyl-3-(3-fluoro-4-((3-methyl-1H-pyrrolo[2,3-b]pyridin-4-yl)oxy)phenyl)propanamide] | < 3 nM | < 3 nM
6 | Cc1c[nH]c2nccc(Oc3ccc(C[C@H](N)C(=O)N4CC=C(c5ccccc5)CC4)cc3F)c12 [Example 21, (S)-2-amino-3-(3-fluoro-4-((3-methyl-1H-pyrrolo[2,3-b]pyridin-4-yl)oxy)phenyl)-1-(4-phenyl-5,6-dihydropyridin-1(2H)-yl)propan-1-one] | < 3 nM | < 3 nM
7 | Cc1c[nH]c2nccc(Oc3ccc(C[C@H](N)C(=O)N4CCN(S(=O)(=O)c5ccccc5)CC4)cc3F)c12 [Example 22, (S)-2-amino-3-(3-fluoro-4-((3-methyl-1H-pyrrolo[2,3-b]pyridin-4-yl)oxy)phenyl)-1-(4-(phenylsulfonyl)piperazin-1-yl)propan-1-one] | < 3 nM | < 3 nM
8 | Cc1c[nH]c2nccc(Oc3ccc(C[C@H](N)C(=O)N4CCN(C(=O)N(C)C)CC4)cc3F)c12 [Example 23, (S)-4-(2-amino-3-(3-fluoro-4-((3-methyl-1H-pyrrolo[2,3-b]pyridin-4-yl)oxy)phenyl)propanoyl)-N,N-dimethylpiperazine-1-carboxamide] | < 3 nM | < 3 nM
9 | Cc1c[nH]c2nccc(Oc3ccc(C[C@H](N)C(=O)N4C[C@@H]5C[C@H]4CN5Cc4ccccc4)cc3F)c12 [Example 24, (S)-2-amino-1-((1S,4S)-5-benzyl-2,5-diazabicyclo[2.2.1]heptan-2-yl)-3-(3-fluoro-4-((3-methyl-1H-pyrrolo[2,3-b]pyridin-4-yl)oxy)phenyl)propan-1-one] | < 3 nM | < 3 nM
10 | Cc1c[nH]c2nccc(Oc3ccc(C[C@H](N)C(=O)N4C[C@@H]5C[C@H]4CN5C)cc3F)c12 [Example 25, (S)-2-amino-3-(3-fluoro-4-((3-methyl-1H-pyrrolo[2,3-b]pyridin-4-yl)oxy)phenyl)-1-((1S,4S)-5-methyl-2,5-diazabicyclo[2.2,1]heptan-2-yl)propan-1-one] | < 3 nM | < 3 nM

The next lines start with the values.

Row | Ki (Rho kinase 1 (ROCK-I)) | Ki (Rho kinase 2 (ROCK-II)) | SMILES
11 | < 3 nM | < 3 nM | Cc1c[nH]c2nccc(Oc3ccc(C[C@H](N)C(=O)N4C[C@@H](C)N(Cc5ccccc5)[C@@H](C)C4)cc3F)c12 [Example 26, (S)-2-amino-1-((3S,5R)-4-benzyl-3,5-dimethylpiperazin-1-yl)-3-(3-fluoro-4-((3-methyl-1H-pyrrolo[2,3-b]pyridin-4-yl)oxy)phenyl)propan-1-one]
12 | < 3 nM | < 3 nM | Cc1c[nH]c2nccc(Oc3ccc(C[C@H](N)C(=O)N4CCN(Cc5ccccn5)CC4)cc3F)c12 [Example 27, (S)-2-amino-3-(3-fluoro-4-((3-methyl-1H-pyrrolo[2,3-b]pyridin-4-yl)oxy)phenyl)-1-(4-(pyridin-2-ylmethyl)piperazin-1-yl)propan-1-one]
13 | < 3 nM | < 3 nM | Cc1c[nH]c2nccc(Oc3ccc(C[C@H](N)C(=O)N4CCN(Cc5cccnc5)CC4)cc3F)c12 [Example 28, (S)-2-amino-3-(3-fluoro-4-((3-methyl-1H-pyrrolo[2,3-b]pyridin-4-yl)oxy)phenyl)-1-(4-(pyridin-3-ylmethyl)piperazin-1-yl)propan-1-one]
14 | < 3 nM | < 3 nM | Cc1c[nH]c2nccc(Oc3ccc(C[C@H](N)C(=O)N4CC5(CNC5)C4)cc3F)c12 [Example 29, (S)-2-amino-3-(3-fluoro-4-((3-methyl-1H-pyrrolo[2,3-b]pyridin-4-yl)oxy)phenyl)-1-(2,6-diazaspiro[3.3]heptan-2-yl)propan-1-one]
15 | < 3 nM | < 3 nM | Cc1c[nH]c2nccc(Oc3ccc(C[C@H](N)C(=O)N4C[C@H]5CN(C)C[C@H]5C4)cc3F)c12 [Example 30, (S)-2-amino-3-(3-fluoro-4-((3-methyl-1H-pyrrolo[2,3-b]pyridin-4-yl)oxy)phenyl)-1-((3aR,6aS)-5-methylhexahydropyrrolo[3,4-c]pyrrol-2(1H)-yl)propan-1-one]
16 | < 3 nM | < 3 nM | Cc1c[nH]c2nccc(Oc3ccc(C[C@H](N)C(=O)N4C[C@H]5CNC[C@H]5C4)cc3F)c12 [Example 31, (S)-2-amino-3-(3-fluoro-4-((3-methyl-1H-pyrrolo[2,3-b]pyridin-4-yl)oxy)phenyl)-1-((3aR,6aS)-hexahydropyrrolo[3,4-c]pyrrol-2(1H)-yl)propan-1-one]
17 | < 3 nM | < 3 nM | Cc1c[nH]c2nccc(Oc3ccc(C[C@H](N)C(=O)NC4(CO)CCCCC4)cc3F)c12 [Example 32, (S)-2-amino-3-(3-fluoro-4-((3-methyl-1H-pyrrolo[2,3-b]pyridin-4-yl)oxy)phenyl)-N-(1-(hydroxymethyl)cyclohexyl)propanamide]
18 | < 3 nM | < 3 nM | Cc1c[nH]c2nccc(Oc3ccc(C[C@H](N)C(=O)NC4(CO)CCOCC4)cc3F)c12 [Example 33, (S)-2-amino-3-(3-fluoro-4-((3-methyl-1H-pyrrolo[2,3-b]pyridin-4-yl)oxy)phenyl)-N-(4-(hydroxymethyl)tetrahydro-2H-pyran-4-yl)propanamide]
19 | < 3 nM | < 3 nM | Cc1c[nH]c2nccc(Oc3ccc(C[C@H](N)C(=O)NC4(C#N)CCCCC4)cc3F)c12 [Example 34, (S)-2-amino-N-(1-cyanocyclohexyl)-3-(3-fluoro-4-((3-methyl-1H-pyrrolo[2,3-b]pyridin-4-yl)oxy)phenyl)propanamide]
20 | < 3 nM | < 3 nM | Cc1c[nH]c2nccc(Oc3ccc(C[C@H](N)C(=O)NC4(C(N)=O)CCCCC4)cc3F)c12 [Example 35, (S)-1-(2-amino-3-(3-fluoro-4-((3-methyl-1H-pyrrolo[2,3-b]pyridin-4-yl)oxy)phenyl)propanamido)cyclohexanecarboxamide]
